Experimental data from patent US20250344731A1, “SALTY TASTE/UMAMI ENHANCER” (AJINOMOTO CO., INC., priority 2023, published 2025).

How the values were obtained:
[1] = Sensory evaluation of umami enhancement function, naringenin/naringin added to sodium glutamate umami solution or water (Example 2); settings: for umami enhancement function: addition to umami solution (sodium glutamate, sodium aspartate), 30 ppm, function = 1.5 times or more
Description: (§1) As shown in Table 4: Umami solution (weight g/100 g), an umami solution was prepared. Water at ordinary temperature was used for preparation. Water, naringenin (Penta manufacturing) or naringin (IKEDA CORPORATION) were weighed and added to each of the prepared umami solutions or water at various concentrations shown in Table 5: Prepared sensory evaluation samples. The umami intensity of each sample was blindly evaluated using a scoring system in 0.01 point increments, with the umami intensity of water in test plot 1 as 0 point, the umami intensity of NC in test plot 3 as 0.30 points, and the umami intensity of NC2 in test plot 4 as 0.10 point. The evaluation was performed by a trained panel of three, and the average score of each panel was used. Samples whose umami intensity was enhanced by 1.5 times or more (sodium glutamate 0.45 points or more, sodium aspartate 0.15 points or more) due to the addition were evaluated to “have an umami enhancement function”. In addition, the presence or absence, and intensity of off-taste (bitterness and harsh taste other than umami) were also evaluated. The evaluation results are shown in Table 6: Sensory evaluation (umami intensity).

[2] = Sensory evaluation of saltiness enhancement function, naringenin/naringin added to NaCl aqueous solution (Example 1); settings: 30 ppm added to water (NaCl 0%); scale NC 0.8% NaCl = 1.00, PC 0.9% NaCl = 5.5; panel of three, average
[3] = Sensory evaluation of umami enhancement function, naringenin/naringin added to sodium aspartate umami solution (Example 2); settings: 30 ppm added to NC2 (Asp-Na, sodium aspartate 0.2%); for umami intensity (points): NC2 = 0.10 point; for degree of umami enhancement (times): relative to NC2
Description: as §1

[4] = Sensory evaluation of saltiness enhancement function, naringenin/naringin added to NaCl aqueous solution (Example 1); settings: for saltiness intensity: scale NC = 1.00, PC 0.9% NaCl = 5.5; for saltiness enhancement function: addition of 1 ppm or more to salt water, function = saltiness intensity 1.8 points or more
Description: As shown in Table 1: NaCl aqueous solution (weight g/100 g), various NaCl aqueous solutions (saline solutions) were prepared. Filtered water at ordinary temperature was used for preparation. Water, naringenin (Penta Manufacturing), or naringin (IKEDA CORPORATION) were weighed and added to the prepared 0.8% aqueous solution at various concentrations shown in Table 2: Prepared sensory evaluation samples. The saltiness intensity of each sample was blindly evaluated using a scoring system in 0.1 point increments, with the saltiness intensity of NC in test plot 1 as 1.00 point and the saltiness intensity of PC in test plot 2 as 5.5 points. The evaluation was performed by a trained panel of three, and the average score of each panel was used. Samples with a saltiness intensity of 1.8 points or more (NaCl 0.84% or more) due to the addition were evaluated to “have a saltiness enhancement function”. In addition, the presence or absence, and intensity of off-taste (bitterness and harsh taste other than saltiness) were also evaluated. The evaluation results are shown in Table 3: Sensory evaluation (saltiness intensity).

[5] = Sensory evaluation of saltiness enhancement function, naringenin-related flavonoid components in NaCl aqueous solution (Example 3); settings: for saltiness intensity: 30 ppm in NC salt water (NaCl 0.8%), scale NC = 1.0, PC1 0.9% = 2.0, PC2 1.0% = 3.0, panel of three, average
Source text: 1) The following flavonoid components were used as naringenin-related flavonoid components: • Luteolin (manufactured by Salus Nutra Inc.), pinocembrin (manufactured by Xi'an Demeter Biotech Co., Ltd.), liquiritigenin (manufactured by Xi'an Julong Import and Export Co., Ltd.), apigenin (manufactured by Xi'an Best Bio-Tech Co., Ltd.), and acacetin (manufactured by Xi'an Reain Biotechnology Co., Ltd.)
2) The following compound was used as control component: Quercetin (manufactured by Medience Corporation) (structure shown below)
As shown in Table 7: NaCl aqueous solution (weight g/100 g), various NaCl aqueous solutions (saline solutions) were prepared. Water at ordinary temperature was used for preparation.
Each naringenin-related flavonoid component dissolved in propylene glycol (SIGMA) at 10000 ppm was added to the prepared 0.8% salt water solution such that the concentration at the time of eating (corresponding to the content of the present flavonoid component or a salt thereof in the oral ingestion product at the time of oral ingestion, as a flavonoid component relative to the oral ingestion product) was 30 ppm (Table 8).
The saltiness intensity of each sample was blindly evaluated using a scoring system in 0.5 point increments, with the saltiness intensity of NC in test plot 1 as 1.0 point, the saltiness intensity of PC1 as 2.0 points, and the saltiness intensity of PC2 as 3.0 points. The evaluation was performed by a trained panel of three, and the average score was used. Since the saltiness intensity of 2.0 points of PC1 is evaluated to be clearly stronger in saltiness than NC, samples with a saltiness intensity of 1.5 points or more (NaCl 0.85% or more) were evaluated to have a saltiness enhancement function. In addition, the presence or absence, and intensity of off-taste (bitterness and harsh taste other than saltiness) were also evaluated. The evaluation results are shown in Table 9: Sensory evaluation (saltiness intensity).

[6] = Sensory evaluation of umami enhancement function, naringenin-related flavonoid components in umami solution (Example 4); settings: for degree of umami enhancement (times) / umami intensity (points): 30 ppm in NC (sodium glutamate 0.1%); for degree of umami enhancement (times): relative to NC; for umami intensity (points): scale water = 0, NC = 0.30, panel of three, average
Description: • 1) The five naringenin-related flavonoid components evaluated in Example 3 were used. • 2) Quercetin was used as the control component. Umami solutions were prepared as shown in Table 10: Umami solution (weight g/100 g). Water at ordinary temperature was used for preparation. Each naringenin-related flavonoid component and the like dissolved in propylene glycol (SIGMA) at 10000 ppm was added to the prepared 0.1% umami aqueous solution such that the concentration at the time of eating was 30 ppm (Table 11). The umami intensity of each sample was blindly evaluated using a scoring system in 0.05 point increments, with the umami intensity of water in test plot 1 as 0 point and the umami intensity of NC in test plot 2 as 0.30 points. The evaluation was performed by a trained panel of three, and the average score was used. The umami enhancement function of samples whose umami intensity was enhanced by 1.5 times or more (sodium glutamate 0.45 points or more) due to the addition was evaluated to be functional. In addition, the presence or absence, and intensity of off-taste (bitterness and harsh taste other than umami) were also evaluated. The evaluation results are shown in Table 12: Sensory evaluation (umami intensity).

[7] = 30 ppm added to NC1 (MSG, sodium glutamate 0.1%), NC1 = 0.30 points
[8] = 30 ppm added to NC1 (MSG, sodium glutamate 0.1%), relative to NC1
[9] = 30 ppm added to water, scale water = 0, NC1 = 0.30, NC2 = 0.10
[10] = 1 ppm added to NC salt water (NaCl 0.8%)
[11] = 10 ppm added to NC salt water (NaCl 0.8%)
[12] = 30 ppm added to NC salt water (NaCl 0.8%)

**Q.** Which “umami intensity (points)” value [1, 7] does the source give for `O=C1C[C@@H](c2ccc(O)cc2)Oc2cc(O)cc(O)c21` (stereo in doubt) [Naringenin, 5,7-dihydroxy-2-(4-hydroxyphenyl)chroman-4-one] here?
**A.** 0.47 points

**Q.** What about the “degree of umami enhancement (times)” value [1, 8] of the same compound?
**A.** 1.6 times

**Q.** And the “degree of umami enhancement (times)” value ([1]; 30 ppm added to water)?
**A.** 0 times

**Q.** And the “umami intensity (points)” value [1, 9]?
**A.** 0.00 points

**Q.** What about the umami enhancement function [1] of the same compound?
**A.** showed an umami enhancement function

**Q.** What about the saltiness intensity [2] of the same compound?
**A.** 0 points

**Q.** What about the “umami intensity (points)” value [3] of the same compound?
**A.** 0.20 points

**Q.** And the “degree of umami enhancement (times)” value [3]?
**A.** 2.0 times

**Q.** And the saltiness intensity [4, 10]?
**A.** 1.9 points

**Q.** What about the saltiness intensity ([4]; 5 ppm added to NC salt water (NaCl 0.8%)) of the same compound?
**A.** 2.4 points

**Q.** What about the saltiness intensity [4, 11] of the same compound?
**A.** 3.0 points

**Q.** What about the saltiness intensity [4, 12] of the same compound?
**A.** 2.9 points

**Q.** And the saltiness enhancement function [4]?
**A.** showed a saltiness enhancement function

**Q.** With `COc1ccc(-c2cc(=O)c3c(O)cc(O)cc3o2)cc1` [Acacetin, 5,7-dihydroxy-4-methoxyflavone] as the compound, how does the saltiness intensity [5] read?
**A.** 3.5 points

**Q.** What about the “degree of umami enhancement (times)” value [6] of the same compound?
**A.** 1.67 times

**Q.** And the “umami intensity (points)” value [6]?
**A.** 0.50 points

**Q.** What does the source list for `O=c1cc(-c2ccc(O)cc2)oc2cc(O)cc(O)c12` [Apigenin, 5,7-dihydroxy-2-(4-hydroxyphenyl)-4H-1-benzopyran-4-one]?
**A.** saltiness intensity [5]: 3.5 points; degree of umami enhancement (times) [6]: 1.87 times; umami intensity (points) [6]: 0.56 points

**Q.** What does the source list for `O=C1C[C@@H](c2ccc(O)cc2)Oc2cc(O)ccc21` [Liquiritigenin, (2S)-4′,7-dihydroxyflavan-4-one]?
**A.** saltiness intensity [5]: 3.5 points; degree of umami enhancement (times) [6]: 1.87 times; umami intensity (points) [6]: 0.56 points

**Q.** Which saltiness intensity [5] does the source give for `O=c1cc(-c2ccc(O)c(O)c2)oc2cc(O)cc(O)c12` [Luteolin, 2-(3,4-dihydroxyphenyl)-5,7-dihydroxy-4-chromenone] here?
**A.** 2.0 points

**Q.** What about the “degree of umami enhancement (times)” value [6] of the same compound?
**A.** 1.43 times

**Q.** And the “umami intensity (points)” value [6]?
**A.** 0.43 points

**Q.** What about the umami enhancement effect ([6]; 30 ppm in umami solution (sodium glutamate 0.1%), functional = 1.5 times or more) of the same compound?
**A.** tendency to enhance umami

**Q.** What does the source list for `C[C@@H]1O[C@@H](O[C@H]2[C@H](Oc3cc(O)c4c(c3)O[C@H](c3ccc(O)cc3)CC4=O)O[C@H](CO)[C@@H](O)[C@@H]2O)[C@H](O)[C@H](O)[C@H]1O` [Naringin, naringin, reference compound]?
**A.** umami intensity (points) [1, 7]: 0.35 points; degree of umami enhancement (times) [1, 8]: 1.2 times; degree of umami enhancement (times) ([1]; 30 ppm added to water): 0 times; umami intensity (points) [1, 9]: 0.00 points; umami enhancement function [1]: no enhancement of the umami intensity was observed; saltiness intensity [2]: 0 points; umami intensity (points) [3]: 0.12 points; degree of umami enhancement (times) [3]: 1.2 times; saltiness intensity [4, 10]: 1.8 points; saltiness intensity [4, 11]: 2.1 points; saltiness intensity [4, 12]: 2.2 points; saltiness enhancement function [4]: also showed a saltiness enhancement function

**Q.** Which saltiness intensity [5] does the source give for `O=C1CC(c2ccccc2)Oc2cc(O)cc(O)c21` (stereo not drawn) [Pinocembrin, 5,7-dihydroxy-2-phenyl-2,3-dihydro-4H-chromene-4-one] here?
**A.** 2.0 points

**Q.** What about the “degree of umami enhancement (times)” value [6] of the same compound?
**A.** 1.67 times

**Q.** What about the “umami intensity (points)” value [6] of the same compound?
**A.** 0.50 points

**Q.** Which saltiness intensity [5] does the source give for `O=c1c(O)c(-c2ccc(O)c(O)c2)oc2cc(O)cc(O)c12` [Quercetin, reference compound] here?
**A.** 1.3 points

**Q.** What about the saltiness enhancement effect ([5]; 30 ppm in salt water (NaCl 0.8%), function = 1.5 points or more) of the same compound?
**A.** did not show a saltiness enhancement effect

**Q.** What about the “degree of umami enhancement (times)” value [6] of the same compound?
**A.** 1.00 times

**Q.** And the “umami intensity (points)” value [6]?
**A.** 0.30 points
